Data from ChEMBL document CHEMBL5291721, “A preclinical secondary pharmacology resource illuminates target-adverse drug reaction associations of marketed drugs” (Nat Commun, 2023).

Experiments:
Acetylcholinesterase = Acetylcholinesterase (Homo sapiens, UniProt P22303); format: functional
Thromboxane A2 receptor = target: T1, Thromboxane A2 receptor (Homo sapiens, UniProt P21731)
T1 sequence (P21731 whole entry): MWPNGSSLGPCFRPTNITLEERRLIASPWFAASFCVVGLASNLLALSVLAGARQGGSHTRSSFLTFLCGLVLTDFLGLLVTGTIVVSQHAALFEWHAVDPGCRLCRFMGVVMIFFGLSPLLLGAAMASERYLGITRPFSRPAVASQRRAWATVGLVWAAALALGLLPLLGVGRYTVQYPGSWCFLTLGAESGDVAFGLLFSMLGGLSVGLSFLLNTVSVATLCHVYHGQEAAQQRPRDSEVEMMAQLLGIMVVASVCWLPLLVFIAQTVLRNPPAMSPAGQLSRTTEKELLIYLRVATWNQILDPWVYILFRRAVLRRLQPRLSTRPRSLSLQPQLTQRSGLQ

D(3) dopamine receptor = D(3) dopamine receptor (Homo sapiens, UniProt P35462)
[1] = target: Voltage-gated inwardly rectifying potassium channel KCNH2 (Homo sapiens, UniProt Q12809); format: functional; details: read-out: AC50
D(1A) dopamine receptor = D(1A) dopamine receptor (Homo sapiens, UniProt P21728)
[2] = target: T2, Muscarinic acetylcholine receptor M2 (Homo sapiens, UniProt P08172)
T2 sequence (P08172 whole entry): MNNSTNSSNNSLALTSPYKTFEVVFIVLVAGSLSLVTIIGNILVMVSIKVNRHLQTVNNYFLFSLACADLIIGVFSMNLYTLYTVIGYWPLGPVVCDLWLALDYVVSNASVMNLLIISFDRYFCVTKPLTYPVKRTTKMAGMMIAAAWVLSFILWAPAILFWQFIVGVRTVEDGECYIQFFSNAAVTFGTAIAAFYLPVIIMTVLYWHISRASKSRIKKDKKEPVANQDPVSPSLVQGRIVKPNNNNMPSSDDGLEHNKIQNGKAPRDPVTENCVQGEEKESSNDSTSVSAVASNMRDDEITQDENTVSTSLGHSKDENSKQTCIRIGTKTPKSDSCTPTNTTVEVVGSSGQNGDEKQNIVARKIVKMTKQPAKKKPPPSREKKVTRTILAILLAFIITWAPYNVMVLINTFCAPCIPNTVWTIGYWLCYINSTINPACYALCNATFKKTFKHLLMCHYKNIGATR

[3] = target: T3, Alpha-2A adrenergic receptor (Homo sapiens, UniProt P08913)
T3 sequence (P08913 whole entry): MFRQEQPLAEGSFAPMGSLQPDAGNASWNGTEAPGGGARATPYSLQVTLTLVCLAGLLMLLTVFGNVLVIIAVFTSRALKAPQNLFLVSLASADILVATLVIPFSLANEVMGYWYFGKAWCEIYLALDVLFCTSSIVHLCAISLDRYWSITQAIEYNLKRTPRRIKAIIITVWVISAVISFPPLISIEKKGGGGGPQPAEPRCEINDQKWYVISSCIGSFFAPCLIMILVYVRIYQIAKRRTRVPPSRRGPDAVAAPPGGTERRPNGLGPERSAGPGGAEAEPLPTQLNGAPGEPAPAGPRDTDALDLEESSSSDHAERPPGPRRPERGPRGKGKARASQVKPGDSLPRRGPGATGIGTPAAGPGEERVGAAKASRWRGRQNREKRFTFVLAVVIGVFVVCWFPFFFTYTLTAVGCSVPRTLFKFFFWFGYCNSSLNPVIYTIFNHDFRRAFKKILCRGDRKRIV

[4] = target: T4, Amine oxidase [flavin-containing] A (Homo sapiens, UniProt P21397); format: functional
T4 sequence (P21397 whole entry): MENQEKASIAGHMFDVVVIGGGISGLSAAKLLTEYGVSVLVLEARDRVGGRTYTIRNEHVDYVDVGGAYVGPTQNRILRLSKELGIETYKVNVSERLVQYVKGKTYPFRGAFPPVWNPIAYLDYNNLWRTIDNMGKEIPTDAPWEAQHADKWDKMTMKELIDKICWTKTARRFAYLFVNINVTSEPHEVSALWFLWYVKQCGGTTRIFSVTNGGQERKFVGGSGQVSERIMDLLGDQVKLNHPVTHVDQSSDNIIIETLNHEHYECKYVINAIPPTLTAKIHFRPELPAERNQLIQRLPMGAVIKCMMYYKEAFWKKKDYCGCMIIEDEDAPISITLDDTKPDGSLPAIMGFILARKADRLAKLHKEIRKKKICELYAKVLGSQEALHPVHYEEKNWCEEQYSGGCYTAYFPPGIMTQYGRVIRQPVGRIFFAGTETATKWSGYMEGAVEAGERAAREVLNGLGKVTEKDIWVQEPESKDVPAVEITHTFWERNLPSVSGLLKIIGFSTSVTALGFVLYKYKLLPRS

[5] = target: Sodium-dependent dopamine transporter (Homo sapiens, UniProt Q01959)
Mu-type opioid receptor = Mu-type opioid receptor (Homo sapiens, UniProt P35372)
[6] = target: 5-hydroxytryptamine receptor 2B (Homo sapiens, UniProt P41595); format: functional, cell-based
[7] = target: T5, 5-hydroxytryptamine receptor 1A (Homo sapiens, UniProt P08908)
T5 sequence (P08908 whole entry): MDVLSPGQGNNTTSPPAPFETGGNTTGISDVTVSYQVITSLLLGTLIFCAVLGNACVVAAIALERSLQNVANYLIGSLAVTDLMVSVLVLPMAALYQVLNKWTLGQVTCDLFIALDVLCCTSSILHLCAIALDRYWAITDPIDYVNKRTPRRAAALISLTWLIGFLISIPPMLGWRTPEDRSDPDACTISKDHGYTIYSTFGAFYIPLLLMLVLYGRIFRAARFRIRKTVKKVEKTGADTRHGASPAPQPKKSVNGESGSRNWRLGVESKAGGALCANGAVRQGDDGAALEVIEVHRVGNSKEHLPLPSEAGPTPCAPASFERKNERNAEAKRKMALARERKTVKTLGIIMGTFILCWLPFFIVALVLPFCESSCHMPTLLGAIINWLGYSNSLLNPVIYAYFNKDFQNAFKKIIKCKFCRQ

Histamine H3 receptor = Histamine H3 receptor (Homo sapiens, UniProt Q9Y5N1)
[8] = target: Sodium-dependent noradrenaline transporter (Homo sapiens, UniProt P23975)
[9] = target: T6, Alpha-1A adrenergic receptor (Homo sapiens, UniProt P35348); format: functional, cell-based
T6 sequence (P35348 whole entry): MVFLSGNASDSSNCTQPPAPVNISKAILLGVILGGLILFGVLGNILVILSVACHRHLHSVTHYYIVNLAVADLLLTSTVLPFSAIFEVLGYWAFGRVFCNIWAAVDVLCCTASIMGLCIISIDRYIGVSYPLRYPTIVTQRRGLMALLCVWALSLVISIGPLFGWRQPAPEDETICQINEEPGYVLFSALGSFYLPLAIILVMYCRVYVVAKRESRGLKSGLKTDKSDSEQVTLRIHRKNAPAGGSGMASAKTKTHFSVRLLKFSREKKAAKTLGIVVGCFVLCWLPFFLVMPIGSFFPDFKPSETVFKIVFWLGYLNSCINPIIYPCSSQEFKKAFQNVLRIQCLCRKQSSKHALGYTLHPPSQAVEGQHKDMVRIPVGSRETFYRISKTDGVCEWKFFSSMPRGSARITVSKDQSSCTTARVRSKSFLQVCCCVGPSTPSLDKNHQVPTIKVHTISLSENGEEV

[10] = target: Gamma-aminobutyric acid receptor subunit alpha-1/alpha-2/beta-2/gamma-2 (Homo sapiens, UniProt P14867+P18507+P47869+P47870); format: protein-complex assay
[11] = target: T6, Alpha-1A adrenergic receptor; format: functional, cell-based; remark: listed apart in the source
Adenosine receptor A3 = target: T7, Adenosine receptor A3 (Homo sapiens, UniProt P0DMS8)
T7 sequence (P0DMS8 whole entry): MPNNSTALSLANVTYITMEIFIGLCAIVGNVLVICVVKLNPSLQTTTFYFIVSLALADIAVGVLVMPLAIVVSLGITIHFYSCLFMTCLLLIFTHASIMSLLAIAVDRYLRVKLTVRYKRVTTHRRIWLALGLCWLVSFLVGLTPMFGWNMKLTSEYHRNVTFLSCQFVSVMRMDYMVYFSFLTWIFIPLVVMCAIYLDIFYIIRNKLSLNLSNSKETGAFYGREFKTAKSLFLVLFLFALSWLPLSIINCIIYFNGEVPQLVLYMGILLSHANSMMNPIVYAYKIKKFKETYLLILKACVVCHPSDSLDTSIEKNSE
Note: assay procedure not described here.

Chain of Acetylcholinesterase (P22303 whole entry): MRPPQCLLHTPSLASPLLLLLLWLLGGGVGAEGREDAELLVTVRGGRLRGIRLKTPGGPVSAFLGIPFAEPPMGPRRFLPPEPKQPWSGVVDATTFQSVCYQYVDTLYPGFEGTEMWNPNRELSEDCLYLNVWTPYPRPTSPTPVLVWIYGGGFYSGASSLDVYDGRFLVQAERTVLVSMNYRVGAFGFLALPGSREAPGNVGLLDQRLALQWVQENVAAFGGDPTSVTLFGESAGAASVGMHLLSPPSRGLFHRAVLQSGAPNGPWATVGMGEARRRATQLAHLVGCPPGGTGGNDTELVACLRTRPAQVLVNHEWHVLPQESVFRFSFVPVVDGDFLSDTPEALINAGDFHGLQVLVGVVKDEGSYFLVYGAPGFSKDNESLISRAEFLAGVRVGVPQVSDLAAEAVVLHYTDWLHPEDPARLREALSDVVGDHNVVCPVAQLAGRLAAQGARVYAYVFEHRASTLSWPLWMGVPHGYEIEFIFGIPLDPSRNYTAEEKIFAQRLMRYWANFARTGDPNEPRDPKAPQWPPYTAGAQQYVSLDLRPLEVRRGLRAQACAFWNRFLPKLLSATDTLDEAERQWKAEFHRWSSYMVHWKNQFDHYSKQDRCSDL
Chain of Voltage-gated inwardly rectifying potassium channel KCNH2 (Q12809 whole entry): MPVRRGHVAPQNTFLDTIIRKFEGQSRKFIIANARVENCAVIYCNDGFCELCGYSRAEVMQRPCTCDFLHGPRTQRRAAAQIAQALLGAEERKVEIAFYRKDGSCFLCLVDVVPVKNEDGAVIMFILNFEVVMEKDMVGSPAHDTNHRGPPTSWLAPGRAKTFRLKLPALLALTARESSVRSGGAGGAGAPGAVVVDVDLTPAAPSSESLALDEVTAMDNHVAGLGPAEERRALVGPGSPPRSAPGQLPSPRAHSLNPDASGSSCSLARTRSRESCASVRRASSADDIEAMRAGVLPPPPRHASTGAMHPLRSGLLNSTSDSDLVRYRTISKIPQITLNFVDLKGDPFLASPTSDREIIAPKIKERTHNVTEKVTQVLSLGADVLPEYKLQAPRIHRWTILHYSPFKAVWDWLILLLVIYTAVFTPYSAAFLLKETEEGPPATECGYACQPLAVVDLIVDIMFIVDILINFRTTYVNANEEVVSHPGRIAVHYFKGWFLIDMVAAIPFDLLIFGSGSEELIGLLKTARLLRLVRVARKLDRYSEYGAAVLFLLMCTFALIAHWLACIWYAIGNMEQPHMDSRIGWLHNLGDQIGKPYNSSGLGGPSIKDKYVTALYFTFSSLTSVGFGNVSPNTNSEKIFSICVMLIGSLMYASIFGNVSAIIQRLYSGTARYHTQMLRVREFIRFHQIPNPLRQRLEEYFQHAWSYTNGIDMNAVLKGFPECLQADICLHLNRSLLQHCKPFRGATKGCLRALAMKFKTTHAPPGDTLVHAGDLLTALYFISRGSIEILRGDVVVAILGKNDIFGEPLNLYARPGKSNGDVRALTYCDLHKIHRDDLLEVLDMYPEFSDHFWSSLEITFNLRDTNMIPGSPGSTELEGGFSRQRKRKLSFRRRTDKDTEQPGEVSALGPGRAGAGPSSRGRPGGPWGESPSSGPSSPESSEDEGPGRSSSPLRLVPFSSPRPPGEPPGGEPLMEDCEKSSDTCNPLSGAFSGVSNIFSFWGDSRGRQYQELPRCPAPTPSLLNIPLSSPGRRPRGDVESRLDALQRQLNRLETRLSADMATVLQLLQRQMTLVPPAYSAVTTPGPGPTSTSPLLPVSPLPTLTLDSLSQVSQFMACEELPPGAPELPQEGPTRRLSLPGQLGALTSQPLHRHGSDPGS
Chain of D(3) dopamine receptor (P35462 whole entry): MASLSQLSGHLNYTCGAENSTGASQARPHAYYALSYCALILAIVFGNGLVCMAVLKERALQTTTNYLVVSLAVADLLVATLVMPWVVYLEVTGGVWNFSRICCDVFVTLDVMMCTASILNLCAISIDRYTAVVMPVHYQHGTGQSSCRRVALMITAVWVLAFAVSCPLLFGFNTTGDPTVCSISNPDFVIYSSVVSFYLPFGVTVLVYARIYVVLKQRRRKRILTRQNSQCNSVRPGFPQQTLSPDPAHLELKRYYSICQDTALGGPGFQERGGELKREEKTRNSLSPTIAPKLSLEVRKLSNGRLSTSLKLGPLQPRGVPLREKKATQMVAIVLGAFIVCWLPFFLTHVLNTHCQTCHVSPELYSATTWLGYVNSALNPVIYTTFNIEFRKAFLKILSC
Chain of 5-hydroxytryptamine receptor 2B (P41595 whole entry): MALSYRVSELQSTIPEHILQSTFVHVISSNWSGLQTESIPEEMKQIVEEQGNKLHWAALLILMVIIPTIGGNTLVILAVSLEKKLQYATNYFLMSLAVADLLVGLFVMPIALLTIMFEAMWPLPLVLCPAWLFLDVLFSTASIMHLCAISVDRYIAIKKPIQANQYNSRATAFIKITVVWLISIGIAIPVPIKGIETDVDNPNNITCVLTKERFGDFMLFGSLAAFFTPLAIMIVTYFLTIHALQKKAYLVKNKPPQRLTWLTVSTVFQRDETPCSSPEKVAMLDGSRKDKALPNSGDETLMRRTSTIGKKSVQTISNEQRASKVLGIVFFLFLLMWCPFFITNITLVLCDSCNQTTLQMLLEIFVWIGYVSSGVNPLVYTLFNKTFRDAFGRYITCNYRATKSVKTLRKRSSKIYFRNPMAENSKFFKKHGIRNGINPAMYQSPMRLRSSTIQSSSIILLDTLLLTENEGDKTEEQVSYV
Chain of Histamine H3 receptor (Q9Y5N1 whole entry): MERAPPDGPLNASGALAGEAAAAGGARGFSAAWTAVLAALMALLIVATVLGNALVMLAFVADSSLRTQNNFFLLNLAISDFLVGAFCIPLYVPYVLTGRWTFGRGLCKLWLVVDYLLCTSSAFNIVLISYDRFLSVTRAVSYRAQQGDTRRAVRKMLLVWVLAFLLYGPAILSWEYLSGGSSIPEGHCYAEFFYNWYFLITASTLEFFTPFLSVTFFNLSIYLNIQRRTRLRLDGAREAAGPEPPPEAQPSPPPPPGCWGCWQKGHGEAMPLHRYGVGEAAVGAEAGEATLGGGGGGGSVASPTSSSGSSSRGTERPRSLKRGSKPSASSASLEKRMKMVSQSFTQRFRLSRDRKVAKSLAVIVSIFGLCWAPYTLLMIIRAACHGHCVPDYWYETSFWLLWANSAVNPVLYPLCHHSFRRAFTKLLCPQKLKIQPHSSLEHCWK
Chain of Sodium-dependent dopamine transporter (Q01959 whole entry): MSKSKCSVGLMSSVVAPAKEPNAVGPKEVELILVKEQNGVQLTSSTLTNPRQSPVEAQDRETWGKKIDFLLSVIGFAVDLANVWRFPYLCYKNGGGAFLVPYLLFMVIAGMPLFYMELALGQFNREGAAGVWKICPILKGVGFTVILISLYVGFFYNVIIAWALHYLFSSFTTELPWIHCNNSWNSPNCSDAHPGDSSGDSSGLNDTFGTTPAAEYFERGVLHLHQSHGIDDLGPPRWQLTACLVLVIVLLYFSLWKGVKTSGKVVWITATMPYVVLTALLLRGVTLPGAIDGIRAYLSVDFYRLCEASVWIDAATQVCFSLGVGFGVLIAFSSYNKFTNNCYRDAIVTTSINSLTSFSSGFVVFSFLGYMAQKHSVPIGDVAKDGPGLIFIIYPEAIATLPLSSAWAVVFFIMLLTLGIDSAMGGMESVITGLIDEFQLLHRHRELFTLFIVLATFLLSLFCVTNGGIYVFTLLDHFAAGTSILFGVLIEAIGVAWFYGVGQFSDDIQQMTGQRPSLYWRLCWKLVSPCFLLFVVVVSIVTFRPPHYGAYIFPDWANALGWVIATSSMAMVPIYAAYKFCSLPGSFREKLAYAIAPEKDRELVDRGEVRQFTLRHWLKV
Chain of Sodium-dependent noradrenaline transporter (P23975 whole entry): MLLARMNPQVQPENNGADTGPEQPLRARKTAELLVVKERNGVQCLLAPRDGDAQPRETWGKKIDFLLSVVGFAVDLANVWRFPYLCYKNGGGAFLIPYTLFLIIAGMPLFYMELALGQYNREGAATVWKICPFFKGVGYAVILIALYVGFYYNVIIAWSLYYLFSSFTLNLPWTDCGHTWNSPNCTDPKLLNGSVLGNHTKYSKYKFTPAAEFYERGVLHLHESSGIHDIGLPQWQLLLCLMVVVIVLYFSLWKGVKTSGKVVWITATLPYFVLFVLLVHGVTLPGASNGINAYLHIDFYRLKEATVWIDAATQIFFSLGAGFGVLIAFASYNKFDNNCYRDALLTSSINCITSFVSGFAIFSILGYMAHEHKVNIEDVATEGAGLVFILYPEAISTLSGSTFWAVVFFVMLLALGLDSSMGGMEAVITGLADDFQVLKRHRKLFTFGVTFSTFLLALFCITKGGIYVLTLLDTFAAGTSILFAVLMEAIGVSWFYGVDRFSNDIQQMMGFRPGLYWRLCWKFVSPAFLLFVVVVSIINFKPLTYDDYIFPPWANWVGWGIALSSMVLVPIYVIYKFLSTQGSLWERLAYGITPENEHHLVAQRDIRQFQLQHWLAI
Chain of D(1A) dopamine receptor (P21728 whole entry): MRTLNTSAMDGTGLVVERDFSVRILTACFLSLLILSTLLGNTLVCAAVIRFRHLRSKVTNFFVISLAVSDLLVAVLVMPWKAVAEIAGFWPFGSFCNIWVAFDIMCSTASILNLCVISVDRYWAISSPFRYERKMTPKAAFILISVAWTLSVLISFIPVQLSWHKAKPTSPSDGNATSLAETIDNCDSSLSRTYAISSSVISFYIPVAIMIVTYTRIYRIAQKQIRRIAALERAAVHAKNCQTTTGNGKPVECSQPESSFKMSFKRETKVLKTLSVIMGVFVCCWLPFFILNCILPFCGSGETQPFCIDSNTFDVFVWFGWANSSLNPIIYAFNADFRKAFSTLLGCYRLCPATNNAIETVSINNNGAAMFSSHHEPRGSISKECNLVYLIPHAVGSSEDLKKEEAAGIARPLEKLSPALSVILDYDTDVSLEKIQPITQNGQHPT

Compound O=C(O)CN(CCN(CC(=O)O)CC(=O)O)CC(=O)O [EDETIC ACID] has an AC50 (Acetylcholinesterase) greater than 30 µM.

CCCCC[C@H](O)/C=C/[C@H]1[C@H](O)CC(=O)[C@@H]1CCCCCCC(=O)O [ALPROSTADIL] was tested, and the AC50 (Thromboxane A2 receptor) was greater than 10 µM.

In the case of CN(C)CC/C=C1/c2ccccc2Sc2ccc(Cl)cc21 [CHLORPROTHIXENE], the AC50 (D(3) dopamine receptor) is reported as 0.003 µM.

With CC[N+](CC)(CC)CCOc1cccc(OCC[N+](CC)(CC)CC)c1OCC[N+](CC)(CC)CC [GALLAMINE] the AC50 [1] was 8.99 µM and the AC50 (Acetylcholinesterase) was greater than 30 µM.

For Oc1ccccc1 [PHENOL], the AC50 (D(1A) dopamine receptor) was greater than 30 µM, the AC50 [2] was greater than 30 µM and the AC50 [3] was greater than 30 µM. For the same compound, the AC50 [4] was greater than 30 µM, the AC50 [5] was greater than 30 µM and the AC50 (Mu-type opioid receptor) was greater than 30 µM. For the same compound, the AC50 (D(3) dopamine receptor) was greater than 30 µM, the AC50 [6] was greater than 30 µM and the AC50 [7] was greater than 30 µM. For the same compound, the AC50 (Histamine H3 receptor) was greater than 30 µM, the AC50 [8] was greater than 30 µM and the AC50 [9] was greater than 30 µM. For the same compound, the AC50 [10] was greater than 30 µM, the AC50 [11] was greater than 30 µM and the AC50 (Acetylcholinesterase) was greater than 30 µM.

CNC(=C[N+](=O)[O-])NCCSCc1ccc(CN(C)C)o1 [RANITIDINE] gave an AC50 (Adenosine receptor A3) greater than 30 µM.

Compound COc1ccc2c3c1O[C@H]1C[C@@H](O)C=C[C@@]31CCN(C)C2 [GALANTAMINE] has an AC50 [1] greater than 30 µM.
